Experimental data published in paper PMC5218480 (PLoS ONE, 2017).

Test system: MV-4-11 cells
Test: Gene expression microarray analysis (Affymetrix PrimeView) and GSEA
Type: cell-based, human
Set-up: RFU PODN (11730768_x_at) / Fold change /veh PODN (11730768_x_at) / RFU LINC00158 (11744669_a_at) / Fold change /veh LINC00158 (11744669_a_at) / RFU DUSP10 (11751237_a_at) / Fold change /veh DUSP10 (11751237_a_at) / RFU ID3 (11757404_x_at) / Fold change /veh ID3 (11757404_x_at) / RFU PLEKHG5 (11737974_s_at) / Fold change /veh PLEKHG5 (11737974_s_at) / RFU LRRC4B (11730491_at) / Fold change /veh LRRC4B (11730491_at) / RFU GIMAP4 (11747438_a_at) / Fold change /veh GIMAP4 (11747438_a_at) / RFU KRT8 (11758183_x_at) / Fold change /veh KRT8 (11758183_x_at) / RFU CNN1 (11734310_a_at) / Fold change /veh CNN1 (11734310_a_at) / RFU VPS37D (11726825_at) / Fold change /veh VPS37D (11726825_at) / RFU C10orf10 (11716522_x_at) / Fold change /veh C10orf10 (11716522_x_at) / RFU KIR2DL2 /// KIR2DL4 /// KIR2DL5A /// KIR2DL5B /// KIR2DS1 /// KIR2DS2 /// KIR2DS3 /// KIR2DS4 /// KIR3DL3 /// KIR3DL3 /// KIR3DS1 (11738374_at) / Fold change /veh KIR2DL2 /// KIR2DL4 /// KIR2DL5A /// KIR2DL5B /// KIR2DS1 /// KIR2DS2 /// KIR2DS3 /// KIR2DS4 /// KIR3DL3 /// KIR3DL3 /// KIR3DS1 (11738374_at) / RFU C1QL1 (11718748_at) / Fold change /veh C1QL1 (11718748_at) / RFU TMPRSS4 (11747572_a_at) / Fold change /veh TMPRSS4 (11747572_a_at) / RFU HAMP (11756126_x_at) / Fold change /veh HAMP (11756126_x_at) / RFU RNFT2 (11725882_a_at) / Fold change /veh RNFT2 (11725882_a_at) / RFU NR4A2 (11747474_a_at) / Fold change /veh NR4A2 (11747474_a_at) / RFU ABCC12 (11746883_a_at) / Fold change /veh ABCC12 (11746883_a_at) / RFU TMEM136 (11760407_x_at) / Fold change /veh TMEM136 (11760407_x_at) / RFU CLDN22 /// WWC2 (11732394_at) / Fold change /veh CLDN22 /// WWC2 (11732394_at) / RFU HLA-DPB1 (11760878_x_at) / Fold change /veh HLA-DPB1 (11760878_x_at) / RFU SPINT1 (11716480_a_at) / Fold change /veh SPINT1 (11716480_a_at) / RFU GAP43 (11754022_s_at) / Fold change /veh GAP43 (11754022_s_at) / RFU A4GNT (11735810_at) / Fold change /veh A4GNT (11735810_at) / RFU PRB3 (11715151_x_at) / Fold change /veh PRB3 (11715151_x_at) / RFU TUBB4B (11761932_at) / Fold change /veh TUBB4B (11761932_at) / RFU CAPN14 (11732068_a_at) / Fold change /veh CAPN14 (11732068_a_at) / RFU TMCC2 (11721928_a_at) / Fold change /veh TMCC2 (11721928_a_at) / RFU IRGQ (11745062_a_at) / Fold change /veh IRGQ (11745062_a_at) / RFU FAM174B (11720279_a_at) / Fold change /veh FAM174B (11720279_a_at) / RFU TMPRSS4 (11748680_a_at) / Fold change /veh TMPRSS4 (11748680_a_at) / RFU FAM212B (11763350_a_at) / Fold change /veh FAM212B (11763350_a_at) / RFU PLEKHG5 (11743358_a_at) / Fold change /veh PLEKHG5 (11743358_a_at) / RFU ZSCAN30 (11745921_a_at) / Fold change /veh ZSCAN30 (11745921_a_at) / RFU CMKLR1 (11741424_a_at) / Fold change /veh CMKLR1 (11741424_a_at) / RFU LOC101060620 /// MAPK8IP1 (11723275_at) / Fold change /veh LOC101060620 /// MAPK8IP1 (11723275_at) / RFU SPTSSB (11747773_x_at) / Fold change /veh SPTSSB (11747773_x_at) / RFU PRSS12 (11739890_at) / Fold change /veh PRSS12 (11739890_at) / RFU BIN1 (11741810_x_at) / Fold change /veh BIN1 (11741810_x_at) / RFU WNT11 (11732464_a_at) / Fold change /veh WNT11 (11732464_a_at) / RFU C10orf10 (11716521_a_at) / Fold change /veh C10orf10 (11716521_a_at) / RFU C5orf56 (11738089_at) / Fold change /veh C5orf56 (11738089_at) / RFU CYB561 (11721691_x_at) / Fold change /veh CYB561 (11721691_x_at) / RFU ANKRD19P (11752326_a_at) / Fold change /veh ANKRD19P (11752326_a_at) / RFU OR2T12 /// OR2T33 /// OR2T8 (11738714_s_at) / Fold change /veh OR2T12 /// OR2T33 /// OR2T8 (11738714_s_at) / RFU VCAN (11748164_a_at) / Fold change /veh VCAN (11748164_a_at) / RFU JSRP1 (11732532_at) / Fold change /veh JSRP1 (11732532_at) / RFU KRTAP10-11 (11738290_x_at) / Fold change /veh KRTAP10-11 (11738290_x_at) / RFU MYO3A (11730013_a_at) / Fold change /veh MYO3A (11730013_a_at) / RFU EBF3 (11725865_a_at) / Fold change /veh EBF3 (11725865_a_at) / RFU CAMK2N1 (11719241_x_at) / Fold change /veh CAMK2N1 (11719241_x_at) / RFU C5orf56 (11738088_a_at) / Fold change /veh C5orf56 (11738088_a_at) / RFU OLFML3 (11715873_a_at) / Fold change /veh OLFML3 (11715873_a_at) / RFU LOC100653217 /// NTM (11731650_a_at) / Fold change /veh LOC100653217 /// NTM (11731650_a_at) / RFU MAPK11 (11762145_a_at) / Fold change /veh MAPK11 (11762145_a_at) / RFU FIZ1 (11724087_x_at) / Fold change /veh FIZ1 (11724087_x_at) / RFU OASL (11726364_x_at) / Fold change /veh OASL (11726364_x_at) / RFU SOX15 (11748057_x_at) / Fold change /veh SOX15 (11748057_x_at) / RFU CD79A (11719716_a_at) / Fold change /veh CD79A (11719716_a_at) / RFU HIST1H1D (11736915_at) / Fold change /veh HIST1H1D (11736915_at) / RFU CASKIN2 (11723855_a_at) / Fold change /veh CASKIN2 (11723855_a_at) / RFU LOC730098 (11760151_x_at) / Fold change /veh LOC730098 (11760151_x_at) / RFU OR4N2 (11742367_at) / Fold change /veh OR4N2 (11742367_at) / RFU PRRT2 (11749266_a_at) / Fold change /veh PRRT2 (11749266_a_at) / RFU SNX32 (11753110_a_at) / Fold change /veh SNX32 (11753110_a_at) / RFU CDHR5 (11726645_a_at) / Fold change /veh CDHR5 (11726645_a_at) / RFU RCAN1 (11760418_a_at) / Fold change /veh RCAN1 (11760418_a_at) / RFU FAM167A (11723789_a_at) / Fold change /veh FAM167A (11723789_a_at) / RFU FAM26E (11764081_at) / Fold change /veh FAM26E (11764081_at) / RFU ISYNA1 (11749810_s_at) / Fold change /veh ISYNA1 (11749810_s_at) / RFU ACY1 (11761880_at) / Fold change /veh ACY1 (11761880_at) / RFU 11764098_at / Fold change /veh 11764098_at / RFU SAMD14 (11745864_x_at) / Fold change /veh SAMD14 (11745864_x_at) / RFU NPB (11741838_a_at) / Fold change /veh NPB (11741838_a_at) / RFU TMPRSS6 (11731388_a_at) / Fold change /veh TMPRSS6 (11731388_a_at) / RFU KRTAP10-2 (11738614_at) / Fold change /veh KRTAP10-2 (11738614_at) / RFU ARHGAP8 /// PRR5-ARHGAP8 (11727945_x_at) / Fold change /veh ARHGAP8 /// PRR5-ARHGAP8 (11727945_x_at) / RFU KRTAP5-7 /// NADSYN1 (11734609_at) / Fold change /veh KRTAP5-7 /// NADSYN1 (11734609_at) / RFU RASL12 (11751679_a_at) / Fold change /veh RASL12 (11751679_a_at) / RFU CDKN2B (11736163_a_at) / Fold change /veh CDKN2B (11736163_a_at) / RFU PRF1 (11729649_at) / Fold change /veh PRF1 (11729649_at) / RFU, ZNF638 /// ZNF638-IT1 / Fold change vs veh, ZNF638 /// ZNF638-IT1 / RFU, PANK3 / Fold change vs veh, PANK3 / RFU, SH3YL1 / Fold change vs veh, SH3YL1 / RFU, ZEB2 / Fold change vs veh, ZEB2 / RFU, NRIP1 / Fold change vs veh, NRIP1 / RFU, PTTG1IP / Fold change vs veh, PTTG1IP / RFU, CAPN2 / Fold change vs veh, CAPN2 / RFU, MED14 / Fold change vs veh, MED14 / RFU, SNORA58 / Fold change vs veh, SNORA58 / RFU, C1orf63 / Fold change vs veh, C1orf63 / RFU, LRRFIP1 / Fold change vs veh, LRRFIP1 / RFU, NDUFAF7 / Fold change vs veh, NDUFAF7 / RFU, SLC12A2 / Fold change vs veh, SLC12A2 / RFU, IBTK / Fold change vs veh, IBTK / RFU, ESF1 / Fold change vs veh, ESF1 / Fold change vs veh, TMEM50B / RFU, TAOK1 / Fold change vs veh, TAOK1 / RFU, ACBD3 / Fold change vs veh, ACBD3 / RFU, TMA16 / Fold change vs veh, TMA16 / RFU, RWDD3 / Fold change vs veh, RWDD3 / RFU, BCAT1 / Fold change vs veh, BCAT1 / RFU, EDEM3 / Fold change vs veh, EDEM3 / RFU, TMEM33 / Fold change vs veh, TMEM33 / RFU, WDR75 / Fold change vs veh, WDR75 / RFU, AHCTF1 / Fold change vs veh, AHCTF1 / RFU, TFRC / Fold change vs veh, TFRC / RFU, ZDHHC17 / Fold change vs veh, ZDHHC17 / RFU, NOM1 / Fold change vs veh, NOM1 / RFU, ARL8B / Fold change vs veh, ARL8B / RFU, ZBTB11 / Fold change vs veh, ZBTB11 / RFU, TAMM41 / Fold change vs veh, TAMM41 / RFU, KIAA1704 /// LOC100996395 / Fold change vs veh, KIAA1704 /// LOC100996395 / RFU, ING1 / Fold change vs veh, ING1 / RFU, TRMT61B / Fold change vs veh, TRMT61B / RFU, FUBP3 / Fold change vs veh, FUBP3 / RFU, TP53 / Fold change vs veh, TP53 / RFU, TNKS2 / Fold change vs veh, TNKS2 / RFU, ZFP14 / Fold change vs veh, ZFP14 / RFU, ACTR2 / Fold change vs veh, ACTR2 / RFU, PPP3R1 / Fold change vs veh, PPP3R1 / RFU, PIK3R1 / Fold change vs veh, PIK3R1 / RFU, HNRNPA1 / Fold change vs veh, HNRNPA1 / RFU, RNF170 / Fold change vs veh, RNF170 / RFU, ZNF28 / Fold change vs veh, ZNF28 / RFU, RNGTT / Fold change vs veh, RNGTT / RFU, OGT / Fold change vs veh, OGT / RFU, BRD1 / Fold change vs veh, BRD1 / RFU, MARS / Fold change vs veh, MARS / RFU, ZNF655 / Fold change vs veh, ZNF655 / RFU, FAHD1 / Fold change vs veh, FAHD1 / RFU, BDP1 / Fold change vs veh, BDP1 / RFU, LRRCC1 / Fold change vs veh, LRRCC1 / RFU, ARID1A / Fold change vs veh, ARID1A / RFU, ZNF146 / Fold change vs veh, ZNF146 / RFU, ZNF330 / Fold change vs veh, ZNF330 / RFU, GPN3 / Fold change vs veh, GPN3 / RFU, C9orf123 / Fold change vs veh, C9orf123 / RFU, N4BP2L2 / Fold change vs veh, N4BP2L2 / RFU, ARFIP1 / Fold change vs veh, ARFIP1 / RFU, FAM179B / Fold change vs veh, FAM179B / RFU, BCL10 / Fold change vs veh, BCL10 / RFU, UHRF1BP1L / Fold change vs veh, UHRF1BP1L / RFU, BET1 / Fold change vs veh, BET1 / RFU, CNOT2 / Fold change vs veh, CNOT2 / RFU, ZNF268 / Fold change vs veh, ZNF268 / Fold change vs veh, ZNF507 / RFU, DGCR2 / Fold change vs veh, DGCR2 / RFU, WDSUB1 / Fold change vs veh, WDSUB1 / Fold change vs veh, HSP90B1 /// MIR3652 / RFU, ADSS / Fold change vs veh, ADSS / RFU, GK / Fold change vs veh, GK / RFU, ZNF148 / Fold change vs veh, ZNF148 / RFU, TAF9 / Fold change vs veh, TAF9 / RFU, SLC1A5 / Fold change vs veh, SLC1A5 / RFU, SLMO2 / Fold change vs veh, SLMO2 / RFU, ABCC4 / Fold change vs veh, ABCC4 / RFU, LOC101060439 /// RAP1B / Fold change vs veh, LOC101060439 /// RAP1B / RFU, RFX7 / Fold change vs veh, RFX7 / RFU, GTPBP10 / Fold change vs veh, GTPBP10 / RFU, CNEP1R1 / Fold change vs veh, CNEP1R1 / RFU, BIVM-ERCC5 /// ERCC5 / Fold change vs veh, BIVM-ERCC5 /// ERCC5 / RFU, ILF3 / Fold change vs veh, ILF3 / RFU 11762660_at / Fold change /veh 11762660_at / RFU VCAN (11757783_s_at) / Fold change /veh VCAN (11757783_s_at) / RFU DDX43 (11728927_at) / Fold change /veh DDX43 (11728927_at) / RFU KRT8 (11758188_x_at) / Fold change /veh KRT8 (11758188_x_at) / RFU NKD1 (11759106_at) / Fold change /veh NKD1 (11759106_at) / RFU SRD5A1 (11742802_a_at) / Fold change /veh SRD5A1 (11742802_a_at) / RFU TPSAB1 /// TPSB2 (11721975_s_at) / Fold change /veh TPSAB1 /// TPSB2 (11721975_s_at) / RFU GSTM3 (11746129_a_at) / Fold change /veh GSTM3 (11746129_a_at) / RFU IL23R (11737362_x_at) / Fold change /veh IL23R (11737362_x_at) / RFU TMEM51 (11727254_a_at) / Fold change /veh TMEM51 (11727254_a_at) / RFU PIWIL2 (11732686_x_at) / Fold change /veh PIWIL2 (11732686_x_at) / RFU ORM1 (11744905_x_at) / Fold change /veh ORM1 (11744905_x_at) / RFU CCDC152 (11743942_at) / Fold change /veh CCDC152 (11743942_at) / RFU ECM1 (11717891_a_at) / Fold change /veh ECM1 (11717891_a_at) / RFU IL23R (11748794_a_at) / Fold change /veh IL23R (11748794_a_at) / RFU TNFAIP8L3 (11732012_x_at) / Fold change /veh TNFAIP8L3 (11732012_x_at) / RFU MBOAT4 (11741988_at) / Fold change /veh MBOAT4 (11741988_at) / RFU 11764193_at / Fold change /veh 11764193_at / RFU TMEM53 (11763286_at) / Fold change /veh TMEM53 (11763286_at) / RFU MAGEB2 (11727129_at) / Fold change /veh MAGEB2 (11727129_at) / RFU TMEM200A (11744735_a_at) / Fold change /veh TMEM200A (11744735_a_at) / RFU CCDC152 (11751479_a_at) / Fold change /veh CCDC152 (11751479_a_at) / RFU FAM211A (11726209_a_at) / Fold change /veh FAM211A (11726209_a_at) / RFU RGS16 (11746705_a_at) / Fold change /veh RGS16 (11746705_a_at) / RFU VCAN (11755009_s_at) / Fold change /veh VCAN (11755009_s_at) / RFU RHOB (11743442_s_at) / Fold change /veh RHOB (11743442_s_at) / RFU RGS16 (11720943_a_at) / Fold change /veh RGS16 (11720943_a_at) / RFU RGS16 (11720944_at) / Fold change /veh RGS16 (11720944_at) / RFU, VPS4B / Fold change vs veh, VPS4B / RFU, CREB1 / Fold change vs veh, CREB1 / RFU, DNAJC13 / Fold change vs veh, DNAJC13 / RFU, GNAQ / Fold change vs veh, GNAQ / RFU, CDK5R1 / Fold change vs veh, CDK5R1 / RFU, ZRANB3 / Fold change vs veh, ZRANB3 / RFU, CUL4A / Fold change vs veh, CUL4A / RFU, CCNY / Fold change vs veh, CCNY / RFU, UFL1 / Fold change vs veh, UFL1 / RFU, COG3 / Fold change vs veh, COG3 / RFU, DIAPH2 / Fold change vs veh, DIAPH2 / RFU, SKA2 / Fold change vs veh, SKA2 / RFU, AFF3 / Fold change vs veh, AFF3 / RFU, LMF1 / Fold change vs veh, LMF1 / RFU, IPO11 / Fold change vs veh, IPO11 / RFU, DFFB / Fold change vs veh, DFFB / RFU, FOXP1 / Fold change vs veh, FOXP1 / RFU, CARD8 / Fold change vs veh, CARD8 / RFU, STRN3 / Fold change vs veh, STRN3 / RFU, ADK / Fold change vs veh, ADK / RFU, RASSF2 / Fold change vs veh, RASSF2 / RFU, WIPF1 / Fold change vs veh, WIPF1 / RFU, LARP1B / Fold change vs veh, LARP1B / RFU, RASA1 / Fold change vs veh, RASA1 / RFU, RB1 / Fold change vs veh, RB1 / RFU, PPFIA1 / Fold change vs veh, PPFIA1 / RFU, MAT2A / Fold change vs veh, MAT2A / RFU, CCT5 / Fold change vs veh, CCT5 / RFU, WDR92 / Fold change vs veh, WDR92 / RFU, CUX1 / Fold change vs veh, CUX1 / RFU, TTC7A / Fold change vs veh, TTC7A / RFU, TMEM135 / Fold change vs veh, TMEM135 / RFU, DEPTOR / Fold change vs veh, DEPTOR / RFU, CPM / Fold change vs veh, CPM / RFU, DNAJB6 / Fold change vs veh, DNAJB6 / RFU, CACNA2D3 / Fold change vs veh, CACNA2D3 / RFU, DTX4 / Fold change vs veh, DTX4 / RFU, TFCP2 / Fold change vs veh, TFCP2 / RFU, GMCL1 /// GMCL1P1 / Fold change vs veh, GMCL1 /// GMCL1P1 / RFU, AEBP2 / Fold change vs veh, AEBP2 / RFU, SNHG1 /// SNORD22 /// SNORD25 /// SNORD26 /// SNORD27 /// SNORD28 /// SNORD29 /// SNORD31 / Fold change vs veh, SNHG1 /// SNORD22 /// SNORD25 /// SNORD26 /// SNORD27 /// SNORD28 /// SNORD29 /// SNORD31 / Fold change (Aza/veh), C12orf56 (ProbeSet 11735607_a_at) / Fold change (ACY-1035/veh), C12orf56 (ProbeSet 11735607_a_at) / Fold change (Aza/veh), FGFR1OP (ProbeSet 11751329_s_at) / Fold change (ACY-1035/veh), FGFR1OP (ProbeSet 11751329_s_at) / Fold change (Aza/veh), VPS36 (ProbeSet 11739960_a_at) / Fold change (ACY-1035/veh), VPS36 (ProbeSet 11739960_a_at) / RFU SYPL1 (11715823_x_at) / Fold change /veh SYPL1 (11715823_x_at) / RFU IGFBP7 (11715501_s_at) / Fold change /veh IGFBP7 (11715501_s_at) / RFU REEP3 (11722064_at) / Fold change /veh REEP3 (11722064_at) / RFU IGLL1 (11728026_x_at) / Fold change /veh IGLL1 (11728026_x_at): dose or concentration left out as unconfirmed
Details: MV-4-11 cells, 48 hours

## Nc1ccc(-c2cccs2)cc1NC(=O)c1ccc2c(c1)cc(C1CC1)n2CCN1CCOCC1 [ACY-1035]
  Fold change /veh CAPN14 (11732068_a_at): 1.08
